Among the test systems are PC-3 prostate; OVCAR-5 ovarian; NCI-H460 lung; IGROV1 ovarian; LOX IMVI melanoma; A549 NSCLC; M14 melanoma; HT29 colon; EKVX NSCLC; NCI-H522 lung.
Experiment in all cases: NCI-60 cell line screen, 48 h

Each structure is given as a SMILES string. “And” between values parts separate entries of the source, which are not always exact repeats. Identical values can stand only once.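 Five compound concentrations were applied to cells in 96-well plates for 48 hours; endpoints were derived by simple linear interpolation of the resulting dose-response curve. GI50 marks 50% less growth. TGI: total growth inhibition.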 Some results are limits rather than exact numbers.

As to `CSCc1ncc(-c2ccc(C(F)(F)F)cc2)c(NC2CCCCCC2)n1`, the GI50 with PC-3 prostate, with OVCAR-5 ovarian, in the assay with NCI-H460 lung, in the assay on IGROV1 ovarian, in the assay with LOX IMVI melanoma and in the assay with A549 NSCLC was over 10 µM throughout. For the same molecule, the GI50 in the assay on M14 melanoma and in the assay on HT29 colon was over 10 µM each time. Besides, the TGI in the assay with PC-3 prostate, in the assay with OVCAR-5 ovarian, in the assay with NCI-H460 lung, in the assay with IGROV1 ovarian, in the assay on LOX IMVI melanoma and with A549 NSCLC was over 10 µM each time. Also, the TGI with M14 melanoma and with HT29 colon was over 10 µM in each case.

For `NC(=S)c1cccc(C2Nc3ccccc3O2)c1` (stereo not drawn), the TGI in the assay with PC-3 prostate, in the assay on OVCAR-5 ovarian, in the assay on NCI-H460 lung, in the assay on IGROV1 ovarian, with EKVX NSCLC and in the assay on NCI-H522 lung was over 100 µM in each case. Moreover, the TGI with A549 NSCLC, in the assay with M14 melanoma and with HT29 colon was over 100 µM in each case.

`O=C1C(=O)N(c2cc(Cl)ccc2Cl)C(=O)C(=O)C1c1nc2ccccc2s1`: the TGI in the assay on OVCAR-5 ovarian, with NCI-H460 lung, with IGROV1 ovarian, in the assay with LOX IMVI melanoma, with EKVX NSCLC and with NCI-H522 lung was over 100 µM each time. Besides, the TGI with A549 NSCLC, in the assay on M14 melanoma and in the assay with HT29 colon was over 100 µM in each case.

In the case of `O=C1N=C2N=C(c3ccc(Cl)cc3)N(c3ccc(Cl)cc3)N2Sc2ccccc21`, the TGI in the assay on OVCAR-5 ovarian, in the assay on NCI-H460 lung, in the assay with IGROV1 ovarian, in the assay on LOX IMVI melanoma, in the assay on EKVX NSCLC and in the assay on NCI-H522 lung was over 100 µM throughout. Besides, the TGI with A549 NSCLC, with M14 melanoma and in the assay on HT29 colon was over 100 µM each time.

On to `CCCCS(=O)(=O)c1cc(Nc2ccc(O)c3c2C(=O)c2ccccc2C3=O)ccc1C`, for which the GI50 is over 100 µM with PC-3 prostate; over 100 µM in the assay with OVCAR-5 ovarian; 0.431 µM with NCI-H460 lung; over 100 µM in the assay on IGROV1 ovarian; over 100 µM in the assay with NCI-H522 lung; 1.88 µM in the assay with A549 NSCLC. Also, the GI50 is 2.87 µM in the assay on M14 melanoma and over 100 µM in the assay on HT29 colon. The TGI with PC-3 prostate, in the assay with OVCAR-5 ovarian, in the assay on NCI-H460 lung, with IGROV1 ovarian, in the assay on NCI-H522 lung and with A549 NSCLC was over 100 µM in each case. For the same molecule, the TGI in the assay on M14 melanoma and in the assay with HT29 colon was over 100 µM in each case.

Take `CNC(=O)NCCCCC(NC(C)=O)C(=O)NCc1ccccc1` (stereo not drawn): the TGI in the assay on OVCAR-5 ovarian, in the assay with NCI-H460 lung, in the assay with IGROV1 ovarian, in the assay on LOX IMVI melanoma, in the assay on EKVX NSCLC and in the assay with NCI-H522 lung was over 100 µM each time. The TGI in the assay with A549 NSCLC, in the assay on M14 melanoma and in the assay on HT29 colon was over 100 µM in each case.

Take `Cn1cnnc1Sc1c([N+](=O)[O-])nc(-c2ccc([N+](=O)[O-])cc2)n1C`: the TGI in the assay on OVCAR-5 ovarian was 52 µM; with NCI-H460 lung, over 100 µM; in the assay on IGROV1 ovarian it was 33.4 µM; with LOX IMVI melanoma, 26.8 µM; in the assay with EKVX NSCLC, 76.1 µM; in the assay with NCI-H522 lung, 19.7 µM. Also, the TGI with A549 NSCLC is over 100 µM; in the assay with M14 melanoma, 30.6 µM; in the assay on HT29 colon, 34.3 µM.

As for `C=C(CN1CCN(c2ccccn2)CC1)c1ccc(C(=O)Nc2ccccc2N)cc1`, the GI50 with PC-3 prostate was 3.78 µM; in the assay on OVCAR-5 ovarian, 6.1 µM; in the assay with NCI-H460 lung it was 2.81 µM; in the assay with IGROV1 ovarian it was 1.57 µM; in the assay on EKVX NSCLC, 5.33 µM; with NCI-H522 lung, 1.56 µM. The values for the GI50 in the assay on A549 NSCLC and in the assay with M14 melanoma were 2.4 µM and 8.48 µM, respectively. Besides, the TGI in the assay on PC-3 prostate was over 50 µM; in the assay on OVCAR-5 ovarian it was 26.4 µM; in the assay with NCI-H460 lung, over 50 µM; in the assay on IGROV1 ovarian, 37.8 µM; with EKVX NSCLC, over 50 µM; with NCI-H522 lung it was 9.36 µM. Further, the TGI was 37.3 µM with A549 NSCLC and over 50 µM in the assay on M14 melanoma.

Take `COc1ccc(OCC(=O)O)c2c1CCC(C)C2=O` (stereo not drawn): the TGI in the assay on OVCAR-5 ovarian, in the assay on NCI-H460 lung, in the assay with IGROV1 ovarian, with LOX IMVI melanoma, in the assay on EKVX NSCLC and in the assay with NCI-H522 lung was over 100 µM in each case. The TGI with A549 NSCLC, in the assay with M14 melanoma and in the assay with HT29 colon was over 100 µM throughout.

Take `CN1C2C=CC(=O)C1C(C#N)C2` (stereo not drawn): the TGI in the assay with PC-3 prostate is over 100 µM; with OVCAR-5 ovarian it was 15.7 µM and > 100 µM; in the assay on NCI-H460 lung, over 100 µM; with IGROV1 ovarian it was over 100 µM; in the assay on EKVX NSCLC, 49.6 µM and > 100 µM; with A549 NSCLC it was over 100 µM. The TGI is 89.7 µM and > 100 µM with M14 melanoma; over 100 µM in the assay on HT29 colon. Besides, the GI50 is 20.6 µM and 44.2 µM in the assay on EKVX NSCLC; 29.5 µM and 69.1 µM in the assay on M14 melanoma; 31.8 µM and 90.5 µM with HT29 colon.

The record behind these values is PubChem BioAssay (NCI).
